For six compounds, MIC and IC50 results are on record in US20240166609A1, “ANTIBACTERIAL COMPOUNDS” (BLACKSMITH MEDICINES, INC., priority 2021, published 2024).

Assay [1] relates to E. coli ATCC25922. The assay can be described thus: Bacterial susceptibility testing, MIC by broth microdilution (CLSI). The assay is classed as cell-based. To be noted: Escherichia coli, 35° C., 18-24 h, read-out: MIC (μg/mL) E. coli ATCC25922. The procedure, abridged:
(§1)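 CLSI broth microdilution in cation-adjusted Mueller-Hinton broth, final inoculum 3×10^5–7×10^5 CFU/mL, 2-fold serial drug dilutions added from DMSO. Incubated in ambient air at 35° C. for 18-24 h; MIC taken as lowest concentration preventing visible growth (OD600 nm<0.05), with CLSI quality-control strains.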
For orientation: Broth dilution looks for growth in wells or tubes with falling amounts of substance.

Assay [2] has as its system K. pneumoniae ATCC13883. Described as above. The assay is classed as cell-based. To be noted: Klebsiella pneumoniae, 35° C., 18-24 h, read-out: MIC (μg/mL) K. pneumoniae ATCC13883. The procedure, abridged:
as §1

Assay [3] relates to P. aeruginosa 209 PAO1. Described as above. To be noted: Pseudomonas aeruginosa, 35° C., 18-24 h, read-out: MIC (μg/mL) P. aeruginosa 209 PAO1. It is filed as cell-based. In short, it runs like this: as §1
The test system of assay [4] is P. aeruginosa ATCC27835. The assay is described as above. It is filed as cell-based. To be noted: Pseudomonas aeruginosa, 35° C., 18-24 h, read-out: MIC (μg/mL) P. aeruginosa ATCC27835. In short, it runs like this: as §1
The target of assay [5] is T1, E. coli LpxC (Escherichia coli, UniProt P0A725).
T1 sequence (P0A725 1-305): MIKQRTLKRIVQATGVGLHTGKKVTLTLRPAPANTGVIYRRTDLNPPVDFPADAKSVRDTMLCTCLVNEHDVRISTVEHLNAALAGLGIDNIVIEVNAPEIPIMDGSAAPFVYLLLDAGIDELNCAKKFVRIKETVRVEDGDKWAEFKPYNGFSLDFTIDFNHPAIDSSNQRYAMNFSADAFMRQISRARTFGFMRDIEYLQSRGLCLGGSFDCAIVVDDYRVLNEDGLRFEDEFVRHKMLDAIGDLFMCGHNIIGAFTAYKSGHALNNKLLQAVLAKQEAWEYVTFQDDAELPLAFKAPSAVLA
Briefly: LpxC Binding Assay (Rapid Fire MS assay). The assay is classed as biochemical. How it is done: (§2) IC50 values against E. coli and P. aeruginosa LpxC are determined using a Rapid Fire MS assay as previously described J. Med. Chem. 2012, 55, 1662-1670.

Assay [6] concerns the target T2, P. aeruginosa LpxC (Pseudomonas aeruginosa, UniProt P47205).
T2 sequence (P47205 1-303): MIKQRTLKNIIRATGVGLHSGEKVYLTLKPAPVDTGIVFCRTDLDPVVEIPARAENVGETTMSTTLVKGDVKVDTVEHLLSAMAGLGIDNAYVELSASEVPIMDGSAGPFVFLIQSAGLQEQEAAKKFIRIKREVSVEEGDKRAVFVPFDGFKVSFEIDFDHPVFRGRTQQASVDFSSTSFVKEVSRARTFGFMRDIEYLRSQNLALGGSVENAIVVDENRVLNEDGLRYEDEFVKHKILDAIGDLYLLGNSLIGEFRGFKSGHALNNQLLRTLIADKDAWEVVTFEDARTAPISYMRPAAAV
Briefly: LpxC Binding Assay (Rapid Fire MS assay). The assay is classed as biochemical. How it is done:
as §2

Assay [7] deals with K. pneumoniae LpxC (Klebsiella pneumoniae subsp. pneumoniae, UniProt A6T4N9). The assay can be described thus: LpxC Binding Assay (Rapid Fire MS assay). It is filed as biochemical.
Chain of K. pneumoniae LpxC (A6T4N9 whole entry): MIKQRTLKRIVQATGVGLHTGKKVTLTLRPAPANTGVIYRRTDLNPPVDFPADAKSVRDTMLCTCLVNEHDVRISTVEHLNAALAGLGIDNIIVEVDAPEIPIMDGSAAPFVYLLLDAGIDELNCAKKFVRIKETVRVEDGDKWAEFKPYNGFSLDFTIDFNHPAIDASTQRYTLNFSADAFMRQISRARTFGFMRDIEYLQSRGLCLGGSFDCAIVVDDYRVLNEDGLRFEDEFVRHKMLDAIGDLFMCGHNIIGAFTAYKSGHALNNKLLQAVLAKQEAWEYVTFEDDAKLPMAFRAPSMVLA

SMILES strings stand for the structures. ≈ marks a conversion by molar mass, not a printed value. Bounds are passed on as bounds.

On to `COCC(N)COc1ccc(-c2ccc(C#C[C@@H](CO)n3ccnc3[C@H](C)O)cc2)cc1` (mixture of isomers) [Compound 3, (2S)-4-(4′-(2-amino-3-methoxypropoxy)-[1,1′-biphenyl]-4-yl)-2-(2-((S)-1-hydroxyethyl)-1H-imidazol-1-yl)but-3-yn-1-ol], for which the MIC in assay [1] is 2 µg/mL (≈ 4.59 µM); in assay [2], 4 µg/mL (≈ 9.18 µM); in assay [3], 1 µg/mL (≈ 2.3 µM); in assay [4], 2 µg/mL (≈ 4.59 µM). Further, the IC50 (as a rule, the concentration needed to halve the response being measured) in assay [5] came to 1.5 nM; in assay [6], 15.1 nM; in assay [7] it was 2.2 nM.

For the compound `C[C@H](O)c1nccn1CC#Cc1ccc(-c2ccc(C3CC(NCCC#N)C3)cc2)cc1` (stereo partly drawn) [Compound 18, (S)-3-((3-(4′-(3-(2-(1-hydroxyethyl)-1H-imidazol-1-yl)prop-1-yn-1-yl)-[1,1′-biphenyl]-4-yl)cyclobutyl)amino)propanenitrile], the figures for the MIC in assay [2], in assay [3] and in assay [4] were 0.25 µg/mL (≈ 0.589 µM), 2 µg/mL (≈ 4.71 µM) and 2 µg/mL (≈ 4.71 µM), respectively. The IC50 was below 0.5 nM in assay [5], 8.6 nM in assay [6] and 0.6 nM in assay [7].

As to `C[C@H](O)c1nccn1CC#Cc1ccc(-c2ccc(C3CC(NCCO)C3)cc2)cc1` (stereo partly drawn) [Compound 19, (S)-2-((3-(4′-(3-(2-(1-hydroxyethyl)-1H-imidazol-1-yl)prop-1-yn-1-yl)-[1,1′-biphenyl]-4-yl)cyclobutyl)amino)ethan-1-ol], the MIC in assay [2] worked out at 1 µg/mL (≈ 2.41 µM); in assay [3] it was 4 µg/mL (≈ 9.63 µM); in assay [4], 4 µg/mL (≈ 9.63 µM). Further, the IC50 in assay [5] is below 0.5 nM; in assay [6], 15.9 nM; in assay [7], 0.7 nM.

As to `C[C@H](O)c1nccn1CC#Cc1ccc(-c2ccc(C3CC(NC4COC4)C3)cc2)cc1` (stereo partly drawn) [Compound 20, (S)-1-(1-(3-(4′-(3-(oxetan-3-ylamino)cyclobutyl)-[1,1′-biphenyl]-4-yl)prop-2-yn-1-yl)-1H-imidazol-2-yl)ethan-1-ol], the results for the MIC in assay [2], in assay [3] and in assay [4] were 0.5 µg/mL (≈ 1.17 µM), 4 µg/mL (≈ 9.36 µM) and 4 µg/mL (≈ 9.36 µM), respectively. Moreover, the results for the IC50 in assay [5], in assay [6] and in assay [7] were below 0.5 nM, 11.8 nM and 0.7 nM, respectively.

Take `C[C@H](O)c1nccn1CC#Cc1ccc(-c2ccc(C3CN(C(=O)CO)C3)cc2)cc1` [Compound 21, (S)-2-hydroxy-1-(3-(4′-(3-(2-(1-hydroxyethyl)-1H-imidazol-1-yl)prop-1-yn-1-yl)-[1,1′-biphenyl]-4-yl)azetidin-1-yl)ethan-1-one]: the MIC came out at 1 µg/mL (≈ 2.41 µM) in assay [2], 4 µg/mL (≈ 9.63 µM) in assay [3] and 4 µg/mL (≈ 9.63 µM) in assay [4]. Also, the IC50 in assay [5] is below 0.5 nM; in assay [6], 12.6 nM; in assay [7] it was 0.7 nM.

As for `C[C@H](O)c1nccn1[C@@H](C#Cc1ccc(-c2ccc(OCC(O)CCCO)cc2)cc1)CO` (stereo partly drawn) [Compound 23, 5-((4′-((S)-4-hydroxy-3-(2-((S)-1-hydroxyethyl)-1H-imidazol-1-yl)but-1-yn-1-yl)-[1,1′-biphenyl]-4-yl)oxy)pentane-1,4-diol], the MIC in assay [2], in assay [3] and in assay [4] was 2 µg/mL (≈ 4.44 µM) each time. Moreover, the IC50 was found to be 0.5 nM in assay [5], 7.8 nM in assay [6] and 1 nM in assay [7].
